# Assay results published in publication PMC4368105, “Oleic Acid Metabolism via a Conserved Cytochrome P450 System-Mediated ω-Hydroxylation in the Bark Beetle-Associated Fungus Grosmannia clavigera” (PLoS ONE, 2015).
# Columns and labels:
# [1] = target: T1, GsCYP630B18 with GsCPR2 (RS2) (Leptographium clavigerum, UniProt F0XBA3); assay: reconstituted membranes, LC/MS of 18-hydroxyoleic acid product; format: biochemical; conditions: NADPH, 50 μM oleic acid, pH 7.4, room temperature, 1 h; GsCPR2 as redox partner
# T1 construct: gene CMQ_5365; with NADPH--cytochrome P450 reductase
# T1 sequence (F0XBA3 1-522): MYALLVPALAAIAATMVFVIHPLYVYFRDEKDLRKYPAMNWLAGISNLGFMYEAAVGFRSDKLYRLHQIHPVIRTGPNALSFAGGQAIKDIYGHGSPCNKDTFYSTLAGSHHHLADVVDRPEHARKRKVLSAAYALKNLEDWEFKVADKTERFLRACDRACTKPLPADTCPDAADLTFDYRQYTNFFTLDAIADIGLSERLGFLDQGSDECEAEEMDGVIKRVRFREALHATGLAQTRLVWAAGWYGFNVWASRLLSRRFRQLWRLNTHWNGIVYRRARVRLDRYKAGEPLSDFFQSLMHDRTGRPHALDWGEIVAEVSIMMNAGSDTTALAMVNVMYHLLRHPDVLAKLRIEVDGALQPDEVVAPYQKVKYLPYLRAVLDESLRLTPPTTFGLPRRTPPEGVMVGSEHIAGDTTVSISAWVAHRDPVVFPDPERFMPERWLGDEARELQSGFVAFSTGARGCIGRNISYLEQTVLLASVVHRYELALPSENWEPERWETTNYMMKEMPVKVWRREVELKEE
# T1 sequence (F0XBA4 1-695 partner): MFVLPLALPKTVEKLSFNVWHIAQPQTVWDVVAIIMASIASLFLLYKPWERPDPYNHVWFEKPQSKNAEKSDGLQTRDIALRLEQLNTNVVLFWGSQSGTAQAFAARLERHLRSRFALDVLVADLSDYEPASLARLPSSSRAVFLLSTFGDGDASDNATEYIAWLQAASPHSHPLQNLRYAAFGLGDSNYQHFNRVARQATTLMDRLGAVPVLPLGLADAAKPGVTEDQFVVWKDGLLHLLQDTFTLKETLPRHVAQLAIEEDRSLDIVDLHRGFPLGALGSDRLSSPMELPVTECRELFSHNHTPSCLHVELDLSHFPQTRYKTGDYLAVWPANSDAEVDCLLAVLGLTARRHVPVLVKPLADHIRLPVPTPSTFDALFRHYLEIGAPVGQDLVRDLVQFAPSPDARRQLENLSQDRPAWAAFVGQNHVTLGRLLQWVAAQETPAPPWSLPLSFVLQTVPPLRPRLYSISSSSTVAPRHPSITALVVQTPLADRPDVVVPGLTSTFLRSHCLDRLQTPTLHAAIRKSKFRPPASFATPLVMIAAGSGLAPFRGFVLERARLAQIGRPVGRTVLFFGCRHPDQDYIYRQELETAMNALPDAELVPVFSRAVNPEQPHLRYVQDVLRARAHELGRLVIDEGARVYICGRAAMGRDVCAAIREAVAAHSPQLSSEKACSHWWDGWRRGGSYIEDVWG
# [2] = target: T2, GsCYP630B18 with GsCPR1 (RS1) (Leptographium clavigerum, UniProt F0XBA3); assay: as above; format: biochemical; conditions: NADPH, 50 μM oleic acid, pH 7.4, room temperature, 1 h; GsCPR1 as redox partner
# T2 construct: gene CMQ_5365; with NADPH--cytochrome P450 reductase
# T2 sequence (F0XBA3 1-522): T1 sequence (F0XBA3 1-522)
# T2 sequence (F0XUV1 1-690 partner): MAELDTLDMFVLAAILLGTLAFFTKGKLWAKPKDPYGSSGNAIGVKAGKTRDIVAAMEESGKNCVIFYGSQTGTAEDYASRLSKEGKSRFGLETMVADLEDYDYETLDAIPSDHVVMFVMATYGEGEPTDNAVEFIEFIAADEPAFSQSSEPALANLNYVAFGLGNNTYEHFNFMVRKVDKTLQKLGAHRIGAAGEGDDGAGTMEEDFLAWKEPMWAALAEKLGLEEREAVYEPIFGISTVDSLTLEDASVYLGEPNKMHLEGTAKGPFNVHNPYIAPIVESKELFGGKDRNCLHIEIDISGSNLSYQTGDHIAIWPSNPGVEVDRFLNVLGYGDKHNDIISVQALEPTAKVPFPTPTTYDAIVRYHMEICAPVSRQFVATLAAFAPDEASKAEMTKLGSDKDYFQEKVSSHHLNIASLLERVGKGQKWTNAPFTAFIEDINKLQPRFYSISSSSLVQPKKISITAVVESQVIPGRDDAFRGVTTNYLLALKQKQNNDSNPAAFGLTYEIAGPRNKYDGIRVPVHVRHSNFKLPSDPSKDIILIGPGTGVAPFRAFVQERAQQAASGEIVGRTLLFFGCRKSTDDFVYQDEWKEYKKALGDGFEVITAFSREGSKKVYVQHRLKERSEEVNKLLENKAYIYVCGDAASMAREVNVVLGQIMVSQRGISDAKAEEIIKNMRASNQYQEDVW
smiles,measurement,setting,value
CCCCCCCC/C=C\CCCCCCCC(=O)O [oleic acid],"reconstituted membranes, LC/MS of 18-hydroxyoleic acid product",[1],"CYP630B18 converted oleic acid, but none of the other tested compounds"
same,"reconstituted membranes, LC/MS of 18-hydroxyoleic acid product",[2],"CYP630B18 converted oleic acid, but none of the other tested compounds"
